Experimental data as given in patent US11992499B2, “Quinoline derivatives for use in the treatment of inflammation diseases” (ABIVAX, priority 2018, dated 2024).
Entries after “also recorded” stand apart in the source; their conditions may differ.

How the values were obtained:
[1] = test system: STAM model of non-alcoholic steatohepatitis; test: STAM model of NASH: Alpha-SMA immunostaining; format: in vivo, mice; conditions: for Alpha-SMA-positive area (mean ± SD): n = 8
Experimental: NASH was induced in 48 male mice by a single subcutaneous injection of 200 μg streptozotocin (STZ, Sigma-Aldrich, USA) solution 2 days after birth and feeding with high fat diet (HFD, 57 kcal % fat, Cat #HFD32, CLEA Japan, Inc., Japan) after 4 weeks of age. Compound A was administered at 3 dose levels of 10, 20 and 40 mg/kg once daily from 6 to 9 weeks of age. Compound B was administered at a dose of 40 mg/kg once daily from 6 to 9 weeks of age. Telmisartan was administered at a dose of 10 mg/kg once daily from 6 to 9 weeks of age. […] (Table 9 herein after)

[2] = test system: monocrotaline model of pulmonary arterial hypertension; test: Rat monocrotaline model of pulmonary arterial hypertension: mean pulmonary pressure; format: in vivo; conditions: for Mean Pulmonary Pressure: MCT; for Effect on pulmonary pressure: pulmonary hypertension induced by monocrotaline
Experimental: • 1. The experimental trace to be analyzed is opened in Clampfit. • 2. Right atria pressure is recorded for 1 minute • 3. PAP recorded continuously for at least 1 minute or until loss of signal, is used to extract the mean, diastolic, and systolic pulmonary pressure. • 4. The systemic arterial pressure (SAP) recorded continuously is used to extract the mean, diastolic and systolic arterial pressure. • 5. At the end of the hemodynamic parameters recording, the right and left ventricle including the septum and the lung lobes is excised to determine wet weights. • 6. Each parameter is compiled for each group and presented in bar graphs with appropriate statistical analysis.
The appropriate amount of monocrotaline is weighed and ⅓ of the correct volume of 1.0N HCl is added and mixed to ensure monocrotaline solubilisation. The solution is then neutralized with ⅓ of the correct volume of 1.0 N NaOH. The pH of the solution is checked with a pH indicator paper/strip or an electronic pH meter and adjusted to neutral as necessary; the final volume is completed with water for injection to obtain a solution of 20 mg/mL. The monocrotaline solution is injected subcutaneously, over the shoulders, into the loose skin over the neck, to each rat at 3 mL/kg of body weight (dose is 60 mg/kg).
Compound A was administered as a suspension in the vehicle. To reach the required concentrations, compound A was grounded to a fine powder, using a mortar and pestle, and then mixed with 20% (final volume) of vehicle A1 until a suspension was achieved. 80% of vehicle A2 was then added to the suspension under magnetic stirring.
The appropriate amount of Sildenafil is weighed and appropriate volume of distillated water is added to obtain suspension at 5 mg/mL. The suspension is mixed with a stir bar for 30-60 minutes until a homogenous suspension is achieved. Care is taken to maintain a uniform suspension (stirring continuously) whilst doses are being drawn up into gavage syringes. One gavage syringe is filled at a time and administered before filling the next syringe. The solutions are stored refrigerated at 2 to 8° C. and protected from light. The expiration date is set at 7 days after preparation.
Animals from Groups 2 to 5 (see Table 13) receive a single subcutaneous injection of monocrotaline (60 mg/kg) solution on Day 0 and returned to their cages. Animals from Group 1 receive one subcutaneous injection vehicle for MCT on Day 0 and returned to their respective cages.
Treatment with the compound A, sildenafil or vehicle is administered as of Day 7 (Groups 2-5) as scheduled and described in Table 13. The Groups 2-4 receive a single dose per day. The reference group 5 receives sildenafil twice a day. Food and water are given ad libitum. Daily observation of the behaviour and general health status of the animals is done. Weekly body weight is taken.
Surgical Instrumentation and Measurement of Hemodynamic and Functional Parameters in Efficacy Study Animals • 1. On the selected day of surgery, rats are anaesthetized with a mixture of 2 to 2.5% isoflurane USP (Abbot Laboratories, Montreal, Canada) in oxygen, and placed on a heating pad to maintain body temperature. • 2. Rats are tracheotomized and immediately ventilated by means of a positive-pressure rodent respirator set at ≈10 ml/kg bodyweight at a frequency of 65-70 strokes/min. • 3. Lead II ECG contact electrodes is placed on the rat to continuously monitor the ECG during the surgical procedure. • 4. A cannula connected to a pressure transducer is inserted into the left femoral artery to measure the arterial blood pressure. • 5. A cannula connected to a pressure transducer is inserted into the right atria through the right jugular vein to measure the right atria pressure. • 6. The heart is exposed through a sternotomy and a 20GA 1.16 in Insyte is introduced into the right ventricle and rapidly hooked up to a saline filled PE-50 catheter connected to a transducer. • 7. […]

[3] = test system: STAM model of non-alcoholic steatohepatitis; test: STAM model of NASH: HE staining and NAFLD Activity score; format: in vivo, mice; set-up: key to NAFLD Activity score (mean ± SD): NAFLD Activity score per Kleiner et al. 2005 criteria
Experimental: NASH was induced in 48 male mice by a single subcutaneous injection of 200 μg streptozotocin (STZ, Sigma-Aldrich, USA) solution 2 days after birth and feeding with high fat diet (HFD, 57 kcal % fat, Cat #HFD32, CLEA Japan, Inc., Japan) after 4 weeks of age. Compound A was administered at 3 dose levels of 10, 20 and 40 mg/kg once daily from 6 to 9 weeks of age. Compound B was administered at a dose of 40 mg/kg once daily from 6 to 9 weeks of age. Telmisartan was administered at a dose of 10 mg/kg once daily from 6 to 9 weeks of age. For HE staining, sections were cut from paraffin blocks of liver tissue prefixed in Bouin's solution and stained with Lillie-Mayer's Hematoxylin (Muto Pure Chemicals Co., Ltd., Japan) and eosin solution (FUJIFILM Wako Pure Chemical Corporation). NAFLD Activity score (NAS) was calculated according to the criteria of Kleiner (Kleiner D E. et al., Hepatology, 2005; 41:1313). To visualize collagen deposition, Bouin's fixed liver sections were stained using picro-Sirius red solution (Waldeck, Germany). For quantitative analysis of fibrosis area, bright field images of Sirius red-stained sections were captured around the central vein using a digital camera (DFC295; Leica, Germany) at 200-fold magnification, and the positive areas in 5 fields/section were measured using ImageJ software (National Institute of Health, USA).

[4] = 10 mg/kg PO QD, 6-9 wks of age (Compound A low, Telmisartan groups), n = 8
[5] = 20 mg/kg PO QD, 6-9 wks of age (Compound A middle group), n = 8
[6] = 40 mg/kg PO QD, 6-9 wks of age (Compound A high, Compound B groups), n = 8
[7] = summary statement, dose not stated

SMILES: FC(F)(F)Oc1ccc(Nc2ccc3cccc(Cl)c3n2)cc1 [Compound A, 8-Chloro-N-(4-(trifluoromethoxy)phenyl)quinolin-2-amine]
- Alpha-SMA-positive area (mean ± SD) ([1]; 10 mg/kg PO QD, 6-9 wks of age (Compound A low, Telmisartan groups)): 1.39 ± 1.25%
- Alpha-SMA-positive area (mean ± SD) ([1]; 20 mg/kg PO QD, 6-9 wks of age (Compound A middle group)): 0.91 ± 0.55%
- Alpha-SMA-positive area compared with the Vehicle group ([1]; 40 mg/kg PO QD (Compound A high group)): tended to decrease
- Alpha-SMA-positive area (mean ± SD) ([1]; 40 mg/kg PO QD, 6-9 wks of age (Compound A high, Compound B groups)): 0.85 ± 0.41%
- Mean Pulmonary Pressure ([2]; female rat, 70 mg/kg QD gavage Day 7 to Day 28, n = 7): 22.2 mmHg
- Mean Pulmonary Pressure ([2]; female rat, 120 mg/kg QD gavage Day 7 to Day 28, n = 11): 16.9 mmHg
- Effect on pulmonary pressure ([2]; female rat): reduces significantly
- Effect on pulmonary pressure ([2]; male rat): no effect
- NAS compared with the Vehicle group ([3]; 10 mg/kg PO QD (Compound A low, Telmisartan groups)): tended to decrease; also recorded: decreasing trend
- Hepatocyte ballooning score 0 (None), number of mice [3, 4]: 3
- Hepatocyte ballooning score 1 (Few balloon cells), number of mice [3, 4]: 2
- Hepatocyte ballooning score 2 (Many cells/prominent ballooning), number of mice [3, 4]: 3
- Lobular inflammation score 2 (2-4 foci/200×), number of mice [3, 4]: 7
- Lobular inflammation score 3 (>4 foci/200×), number of mice [3, 4]: 1
- NAFLD Activity score (mean ± SD) [3, 4]: 3.6 ± 1.1
- Steatosis score 0 (<5%), number of mice [3, 4]: 4
- Steatosis score 1 (5-33%), number of mice [3, 4]: 4
- NAS compared with the Vehicle group ([3]; 20 mg/kg PO QD (Compound A middle group)): tended to decrease; also recorded: decreasing trends
- Hepatocyte ballooning score 0 (None), number of mice [3, 5]: 3
- Hepatocyte ballooning score 1 (Few balloon cells), number of mice [3, 5]: 3
- Hepatocyte ballooning score 2 (Many cells/prominent ballooning), number of mice [3, 5]: 2
- Lobular inflammation score 2 (2-4 foci/200×), number of mice [3, 5]: 6
- Lobular inflammation score 3 (>4 foci/200×), number of mice [3, 5]: 2
- NAFLD Activity score (mean ± SD) [3, 5]: 3.4 ± 1.2
- Steatosis score 0 (<5%), number of mice [3, 5]: 6
- Steatosis score 1 (5-33%), number of mice [3, 5]: 2
- NAS compared with the Vehicle group ([3]; 40 mg/kg PO QD (Compound A high, Compound B groups)): tended to decrease; also recorded: decreasing trend
- Hepatocyte ballooning score 0 (None), number of mice [3, 6]: 5
- Hepatocyte ballooning score 1 (Few balloon cells), number of mice [3, 6]: 2
- Hepatocyte ballooning score 2 (Many cells/prominent ballooning), number of mice [3, 6]: 1
- Lobular inflammation score 1 (<2 foci/200×), number of mice [3, 6]: 1
- Lobular inflammation score 2 (2-4 foci/200×), number of mice [3, 6]: 2
- Lobular inflammation score 3 (>4 foci/200×), number of mice [3, 6]: 5
- NAFLD Activity score (mean ± SD) [3, 6]: 3.4 ± 1.3
- Steatosis score 0 (<5%), number of mice [3, 6]: 5
- Steatosis score 1 (5-33%), number of mice [3, 6]: 3
- Overall effect in this NASH model ([3]; conclusion of the study): potential anti-NAS and anti-fibrosis effects
- NAS compared with the Vehicle group [3, 7]: decreasing trends

SMILES: FC(F)(F)Oc1ccc(Nc2ccc3cccc(Cl)c3n2)cc1 [8-Chloro-N-(4-(trifluoromethoxy)phenyl)quinolin-2-amine]
- Alpha-SMA in the liver [1, 7]: decreases
- Effect on pulmonary pressure ([2]; female rat): reduces significantly
- NAS compared with the Vehicle group [3, 7]: decreasing trend
